# Where two headings read alike, the source gives them in different places.
# Assays:
# [1] = test system: Bloodstream form T. brucei (strain 221); assay: T. brucei culturing and evaluation of trypanocidal activity (resazurin); format: cell-based; conditions: Trypanosoma brucei; for EC50: concentration reducing parasite growth by 50%, triplicate; for EC90: concentration reducing parasite growth by 90%
# Procedure: Bloodstream form T. brucei (strain 221) were grown as described previously. […] Logarithmically growing T. brucei were diluted to 2.5 × 10^4 mL^−1 and aliquoted into 96-well plates. Then, compounds were added at a range of concentrations and the plates incubated at 37 °C. Each compound was tested in triplicate. Resazurin was added after 48 h and the plates incubated for a further 16 h. The plates were then read in a Spectramax plate reader. Results were analyzed using GraphPad Prism.
# L6 rat myoblast cells = assay: Cytotoxic activity against rat skeletal myoblast L6 cells; format: cell-based; conditions: 144 h; cytotoxicity, L6 rat myoblasts, 6 days
# Procedure: Cytotoxicity was assessed using microtiter plates following a previously described protocol. Briefly, L6 cells were seeded at 1 × 10^4 mL^−1 in 200 μL of growth medium at different compound concentrations. The plates were incubated for 6 days at 37 °C and then 20 μL resazurin was added to each well. After a further 8 h incubation, fluorescence was determined using a Spectramax plate reader.
# [2] = PAMPA-BBB assay (brain permeability); format: in vitro ADME, porcine; conditions: for Papp: pig, PAMPA, PBS:EtOH 70:30, n=3 ± S.D. in Table S5, read-out: PAMPA-BBB permeability (Pe), experimental value; for CNS Prediction: predictive penetration in the CNS from PAMPA-BBB Pe
# Procedure: The in vitro permeability (Pe) of the tested compounds and fourteen reference drugs through a lipid extract of porcine brain membrane was assessed by using a parallel artificial membrane permeation assay. Commercial drugs and the target compounds were tested using a mixture of phosphate-buffered saline (PBS): EtOH 70:30. The assay was validated by comparing the experimental permeability with the reported values of the reference drugs.
# [3] = test system: T. cruzi epimastigotes (CL Brener stain); assay: T. cruzi culturing and evaluation of trypanocidal activity (resazurin); format: cell-based; conditions: Trypanosoma cruzi; for EC90: epimastigotes, CL Brener, growth reduced by 90%
# Procedure: Activity was determined using 96-well plate assays. Cultures were diluted to 2.5 × 10^5 mL^−1, aliquoted in triplicate at a range of compound concentrations, and incubated for 4 days. Resazurin was added and the plates incubated for a further 3 days, then read in a Spectramax plate reader as outlined above.
# [4] = test system: Bloodstream form T. brucei (strain 221); conditions: read-out: EC50 (T. brucei); comparison drug; cited from earlier work
# [5] = test system: T. cruzi epimastigotes (CL Brener stain); conditions: read-out: EC50 (T. cruzi); comparison drug; cited from earlier work
# [6] = cited from earlier work
Structure (SMILES),Papp [2] [×10⁻⁶ cm/s],CNS Prediction [2],"BBB permeation (in words) ([2]; according to the limits of Di et al., low Pe < 1.89, uncertain 5.16 > Pe 10^−6 cm s^−1 > 1.89)",EC50 [1] [µM],EC90 [1] [µM],EC50 (L6 rat myoblast cells) [µM],EC50 [3] [µM],EC90 [3] [µM],EC50 [4] [µM],EC50 [5] [µM],"PAMPA-BBB permeability (Pe), bibliography value [6]"
Cc1ccc(-n2c[n+](C(C)(C)C)c(Cc3ccccc3)c2-c2ccccc2)cc1 [Compound 1a],4.2,CNS+/-,,0.18 ± 0.01,0.28 ± 0.07,33.9 ± 3.3,1.85 ± 0.29,3.41 ± 0.14,,,
COc1ccc(-n2c[n+](C(C)(C)C)c(Cc3ccc(C)cc3)c2-c2ccc(Cl)cc2)cc1 [Compound 1c],2.6,CNS+/-,,0.18 ± 0.01,0.2 ± 0.01,9.69 ± 0.58,1.72 ± 0.39,2.98 ± 0.19,,,
COc1ccc(-n2c[n+](-c3ccc(OC)cc3)c(Cc3ccccc3)c2-c2ccc(C)cc2)cc1 [Compound 1b],4.9,CNS+/-,,0.04,0.05,4.6 ± 0.38,0.44 ± 0.01,1.29 ± 0.05,,,
CC1CS(=O)(=O)CCN1/N=C/c1ccc([N+](=O)[O-])o1 (stereo not shown) [nifurtimox],,,,,,,,,~2,~2,
CN/C(=N/CCSCc1nc[nH]c1C)NC#N [Cimetidine],,,,,,,,,,,0.0 10-6 cm s-1

# More lines, main results first:
Papp [2] [×10⁻⁶ cm/s],CNS Prediction [2],"BBB permeation (in words) ([2]; according to the limits of Di et al., low Pe < 1.89, uncertain 5.16 > Pe 10^−6 cm s^−1 > 1.89)",Structure (SMILES),EC50 [1] [µM],EC90 [1] [µM],EC50 (L6 rat myoblast cells) [µM],EC50 [3] [µM],EC90 [3] [µM],EC50 [4] [µM],EC50 [5] [µM],"PAMPA-BBB permeability (Pe), bibliography value [6]"
1.6,CNS-,low BBB permeation,Cc1ccc(-n2c[n+](CC(=O)[O-])c(Cc3ccccc3)c2-c2ccccc2)cc1 [Compound 1e],5.26 ± 0.01,6.79 ± 0.09,> 130,> 20,> 20,,,
2.4,CNS+/-,,Cc1ccc(-n2c[n+](-c3ccc4ccccc4c3)c(Cc3ccccc3)c2-c2ccc(Cl)cc2)cc1 [Compound 1d],0.07,0.09,4.09 ± 0.28,0.54 ± 0.08,1 ± 0.04,,,
1.7 ± 0.03,,,"CN1C(C(=O)Nc2ccccn2)=C(O)c2ccccc2S1(=O)=O [Piroxicam, reference compound]",,,,,,,,

# From paper PMC6017328, “Tetrasubstituted Imidazolium Salts as Potent Antiparasitic Agents against African and American Trypanosomiases” (Molecules : A Journal of Synthetic Chemistry and Natural …, 2018)
